Measurements: patent publication US20250352559A1, “Transdermal Delivery Composition for Delivery of at least one Glucose Controlling Agent, and Method of Delivering at least one Glucose Controlling Agent” (Skinvisible Pharmaceuticals, Inc., priority 2024, published 2025)

Columns and labels:
[1] = Franz Cell study, rate of diffusion across a cellulose membrane; assay type: in vitro ADME; conditions: after 6 hours, transdermal formulation of 1% THCV
Protocol: A transdermal formulation of 1% THCV was prepared according to Table 1. The THCV formulation was subjected to a Franz Cell study, measuring the rate of diffusion across a cellulose membrane. As illustrated by the results, after 6 hours, 6.08 mg of THCV diffused across the cellulose membrane. The total dose of THCV applied to the membrane was 11.63 mg, and this calculates to a delivered dose of 52.3% of the THCV which is unexpected.

[2] = system: 3T3-LI preadipocytes; conditions: in vitro; cited from earlier work
[3] = preclinical studies, therapeutic doses; cited from earlier work
[4] = system: animal models of diet-induced obesity; conditions: cited from earlier work
[5] = cited from earlier work

Row | Molecule | adipocyte differentiation and lipid accumulation [2] | safety profile and tolerability [3] | body weight gain, adipose tissue mass, glucose tolerance and insulin sensitivity [4] | also measured
1 | Tetrahydrocannabivarin [THCV] | – | – | – | delivered dose of the THCV ([1]; 6.08 mg of 11.63 mg applied): 52.3%; THCV diffused across the cellulose membrane ([1]; total dose applied 11.63 mg): 6.08 mg
2 | CCCCCc1cc(O)cc(O)c1 [Olivetol] | inhibit adipocyte differentiation and lipid accumulation | favorable safety profiles and are well-tolerated at therapeutic doses | reduce body weight gain, decrease adipose tissue mass, and improve glucose tolerance and insulin sensitivity | –
3 | CCCCCCc1nc(-c2ccc(Cl)cc2)n(-c2ccc(Cl)cc2Cl)n1 [LH-21] | inhibit adipocyte differentiation and lipid accumulation | favorable safety profiles and are well-tolerated at therapeutic doses | reduce body weight gain, decrease adipose tissue mass, and improve glucose tolerance and insulin sensitivity | –
4 | C[C@H](NC(=O)C(C)(C)Oc1ccc(C(F)(F)F)cn1)[C@@H](Cc1ccc(Cl)cc1)c1cccc(C#N)c1 [taranabant] | – | – | reduce body weight gain, decrease adipose tissue mass, and improve glucose tolerance and insulin sensitivity | body weight and metabolic parameters in clinical trials ([5]; clinical trials for the treatment of obesity): promising results in reducing body weight and improving metabolic parameters
5 | Cc1c(C(=O)NN2CCCCC2)nn(-c2ccc(Cl)cc2Cl)c1-c1ccc(Cl)cc1 [rimonabant] | – | – | reduce body weight gain, decrease adipose tissue mass, and improve glucose tolerance and insulin sensitivity | clinical safety ([5]; marketed use, later withdrawn): increased risk of psychiatric adverse effects
